Experimental data from US7655629B2, “Peptides and their use for the treatment of HIV infections” (priority 2002, dated 2010).
Values joined by “and” are separate entries in the source; they are usually repeats but may differ in a detail not shown here. Equal entries are not always repeated. “Also recorded” adds a separate entry of the source. Where two headings read alike, the source gives them in different places. Positions of bridges follow the written chain, without caps; N, C: chain ends. Non-standard residues stand in square brackets, D forms with d. Residues, ends and D or L forms follow the SMILES beside them. No end group written: not given here. ξ: configuration not given here. Oic(3aξ,7aξ) = O=C(O)[C@@H]1CC2CCCCC2N1; Tic = O=C(O)[C@@H]1Cc2ccccc2CN1; dTic = O=C(O)[C@H]1Cc2ccccc2CN1; NMeL = CN[C@@H](CC(C)C)C(=O)O; AEEA = NCCOCCOCC(=O)O

B1: VIR-512 (peptide)
peptide: [NMeL]EAIPMSIPPEFLFGKPFVF

Assays:
[1] = test system: X4-tropic HIV-1 NL4-3; conditions: read-out: IC50 NL4-3; P4-CCR5 cells, HIV-1 NL4-3, peptide 2 h before infection, readout three days after infection
Summary of the method: (§1)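 P4-CCR5 cells (CD4, CCR5, CXCR4, HIV-1 promoter-driven β-galactosidase) pretreated 2 h with peptide, then infected with virus containing 1 ng p24 antigen and incubated overnight. Cells washed and cultured without peptide; three days post-infection infectivity read by chemiluminescent β-galactosidase assay, in quintuplicate.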

[2] = test system: HIV-1 NL4-3 DTV; conditions: read-out: IC50 DTV, P4-CCR5 cells, peptide 2 h before infection, readout three days after infection
Summary of the method: as §1

[3] = Acute toxicity in mice after a single intravenous injection; format: in vivo, SCID-C.B 17-mice; conditions: 927 mg per kg body weight
Protocol: Acute toxicity was evaluated with VIR-121 (LEAIPMSIPpEVAFNkPFVF) after a single intravenous injection into the tail vein of SCID-C.B 17-mice. A dose of 927 mg VIR-121 (SEQ ID NO. 2) dissolved in 13.6 ml 0.9 volume % sodium chloride solution per kg body weight (equivalent to 20.4 mg or 272 μL per mouse) was applied. Injection speed was dose within 15 seconds. […] As a control, 3 mice were each treated with a corresponding volume of vehicle (0.9 volume % NaCl). After 24 hours, the animals were sacrificed, dissected and inspected macroscopically. […] No findings were obtained from macroscopic necropsy compared to the control group.

[4] = target: T1, synthetic fusion peptide of HIV gp41 (Human immunodeficiency virus type 1 group M subtype B, UniProt P04578); test: Inhibition of fusion peptide-induced hemolysis; format: cell-based; conditions: peptides at 1000, 100 and 10 μM preincubated with 100 μM fusion peptide, human erythrocytes, hemoglobin release
T1 construct: The fusion peptide is the very amino-terminal part of gp41 consisting of about 30 amino acid residues
Protocol: The synthetic fusion peptide of HIV gp41 causes concentration-dependent hemolysis which can be measured by hemoglobin released by erythrocytes.
Peptides and any other substance binding to the fusion peptide impair its potency to lyse erythrocytes by changing its structural properties. The inhibition of fusion peptide induced hemolysis was tested as follows: Blood from healthy donors was collected in citrate monovettes and the erythrocytes were extracted by a standard centrifugation and washing protocol known to the skilled person. The final erythrocyte-containing pellett was diluted 1:100 with phosphate-saline buffer. To the peptides (10, 100, or 1000 equivalents) 20 μl of a 100 μM fusion peptide solution in 10% DMSO were added and the solution was diluted to 100 μl with phosphate-buffered saline. A 60 min incubation at 37° C. was carried out. After the preincubation the samples were transferred to 96-well plates and 100 μl of the erythrocyte suspension were added and incubated for 60 min at 37° C. […] The 96-well plate is centrifuged 5 min at 2800 rpm and of the supernatant fluid 150 μl were transferred to a flat-bottom microtiter plate, and the absorbance was measured at 450 nm. The percentage hemolysis was calculated by: [(A450 of the peptide treated sample—A450 of buffer treated sample)/(A450 of Tween-20 treated sample—A450 of buffer treated sample)]×100%.

[5] = rat, plasma
Protocol: (§2) Plasma was spiked resulting in concentrations of 40 μg/ml and stored at 37° C. At time points 0, 15, 30, 45, 60, 120, 180, 240 and 300 min samples of 20 μl were taken. The plasma was immediately mixed for precipitation with the two-fold volume of acetonitrile containing 0.15% (w/v) n-nonyl-β-D-glucopyranoside. Following centrifugation the supernatants were mixed with the two-fold volume of 0.1% (v/v) trifluroacetic acid. Twenty μl of these solutions were analyzed by LC-MS. Chromatography was performed using a gradient with the following eluents: eluent A: water containing 0.06% trifluroacetic acid (v/v), eluent B: acetonitrile/water 80:20 (v/v; with 0.05% trifluoroacetic acid; v/v). A C18 precolumn was used in combination with a C18 separation column (300 Å, 5 μm, 150×1 mm inner diameter) at a flow rate of 30 μl/min. HPLC eluates were ionized by the electrospray technique of a LCQ classic mass spectrometer. Areas of the detected peaks of the peptides of the present invention were measured and used for quantification by external calibration. The calibration curve was linear over a range from 0.5 μg/ml to 250 μg/ml plasma. Half life—defined as the period for a concentration decrease to 50% of the initial concentration—was calculated from the slope of an extrapolated curve plotting the relative peptide concentration at a given time point (logarithm scale) against the incubation time. These experiments allowed the quantitative analysis of peptide concentration in plasma.

[6] = dog, plasma
Protocol: as §2

[7] = human, plasma
Protocol: as §2

[8] = cynomolgus monkey, plasma
Protocol: as §2

[9] = target: gp41 of HIV-1 NL4-3 DTV (HIV-1 NL4-3 DTV); test: cell-based or functional assay
[10] = target: gp41 of HIV-1 NL4-3 (HIV-1 NL4-3); test: cell-based or functional assay

Molecule | IC50 [1] | IC50 [2] | changes of behaviour ([3]; 24 hours observation) | macroscopic necropsy / pathological examination ([3]; sacrificed after 24 hours) | clinical signs (motility, dyspnea, ataxia, muscle tone) ([3]; tail vein, 24 hours observation) | inhibition of fusion peptide-induced hemolysis [4] | half-life [5] | half-life [6] | half-life [7] | half-life [8] | IC50 DTV (HIV-1 infection of P4-CCR5 cells) [9] | IC50 NL4-3 (HIV-1 infection of P4-CCR5 cells) [10]
CC[C@H](C)[C@H](NC(=O)[C@H](C)NC(=O)[C@H](CCC(=O)O)NC(=O)[C@@H](N)CC(C)C)C(=O)N1CCC[C@H]1C(=O)N[C@@H](CCSC)C(=O)N[C@@H](CO)C(=O)N[C@H](C(=O)N1CCC[C@H]1C(=O)N1CCC[C@@H]1C(=O)N[C@@H](CCC(=O)O)C(=O)N[C@H](C(=O)N[C@@H](C)C(=O)N[C@@H](Cc1ccccc1)C(=O)N[C@@H](CC(N)=O)C(=O)N[C@@H](CCCCN)C(=O)N1CCC[C@H]1C(=O)N[C@@H](Cc1ccccc1)C(=O)N[C@H](C(=O)N[C@@H](Cc1ccccc1)C(=O)O)C(C)C)C(C)C)[C@@H](C)CC [VIR-121, LEAIPMSIPpEVAFNKPFVF] (H-LEAIPMSIP[dP]EVAFNKPFVF-OH) | 370 nM | 1790 nM | No changes of behaviour | did not reveal any abnormalities; also recorded: No findings | no signs of reduced or increased motility, dyspnea, ataxia, nor a reduced or increased muscle tone | – | – | – | – | – | – | –
CC[C@H](C)[C@H](NC(=O)[C@H](C)NC(=O)[C@H](CCC(=O)O)NC(=O)[C@@H](N)CC(C)C)C(=O)N1CCC[C@H]1C(=O)N[C@@H](CCSC)C(=O)N[C@@H](CO)C(=O)N[C@H](C(=O)N1CCC[C@H]1C(=O)N1CCC[C@@H]1C(=O)N[C@@H](CCC(=O)O)C(=O)N[C@H](C(=O)N[C@@H](C)C(=O)N[C@@H](Cc1ccccc1)C(=O)N[C@@H](CC(N)=O)C(=O)N[C@@H](CCCCN)C(=O)N1C2CCCCC2C[C@H]1C(=O)N[C@@H](Cc1ccccc1)C(=O)N[C@H](C(=O)N[C@@H](Cc1ccccc1)C(=O)O)C(C)C)C(C)C)[C@@H](C)CC (stereo partly shown) [VIR-269, LEAIPMSIPpEVAFNK(Oic)FVF] (H-LEAIPMSIP[dP]EVAFNK[Oic(3aξ,7aξ)]FVF-OH) | 2610 nM | 900 nM | – | – | – | Dose dependent inhibition | – | – | – | – | – | –
CC[C@H](C)[C@H](NC(=O)[C@@H]1CCCN1C(=O)[C@@H](NC(=O)[C@H](CCCCN)NC(=O)[C@H](CCC(=O)O)NC(=O)[C@@H](N)CC(C)C)[C@@H](C)CC)C(=O)NCC(=O)N[C@H](C(=O)N1CCC[C@H]1C(=O)N1CCC[C@@H]1C(=O)N[C@@H](CCC(=O)O)C(=O)N[C@H](C(=O)N1Cc2ccccc2C[C@@H]1C(=O)N[C@@H](Cc1ccccc1)C(=O)N[C@@H](CC(N)=O)C(=O)N[C@@H](CCCCN)C(=O)N1CCC[C@H]1C(=O)N[C@@H](Cc1ccccc1)C(=O)N[C@H](C(=O)N[C@@H](Cc1ccccc1)C(=O)O)C(C)C)C(C)C)[C@@H](C)CC [VIR-483, LEKIPIGIPpEV(D-Tic)FNKPFVF] (H-LEKIPIGIP[dP]EV[dTic]FNKPFVF-OH) | 765 nM | 866 nM | – | – | – | – | 0.2 h | 6.2 h | 2.6 h | 2.2 h | – | –
CC[C@H](C)[C@H](NC(=O)[C@@H]1CCCN1C(=O)[C@@H](NC(=O)[C@H](CCCCN)NC(=O)[C@H](CCC(=O)O)NC(=O)[C@@H](N)CC(C)C)[C@@H](C)CC)C(=O)NCC(=O)N[C@H](C(=O)N1CCC[C@H]1C(=O)N1CCC[C@@H]1C(=O)N[C@@H](CCC(=O)O)C(=O)N[C@H](C(=O)N1Cc2ccccc2C[C@H]1C(=O)N[C@@H](Cc1ccccc1)C(=O)N[C@@H](CC(N)=O)C(=O)N[C@@H](CCCCN)C(=O)N1CCC[C@H]1C(=O)N[C@@H](Cc1ccccc1)C(=O)N[C@H](C(=O)N[C@@H](Cc1ccccc1)C(=O)O)C(C)C)C(C)C)[C@@H](C)CC [VIR-484, LEKIPIGIPpEV(L-Tic)FNKPFVF] (H-LEKIPIGIP[dP]EV[Tic]FNKPFVF-OH) | 100 nM | 339 nM | – | – | – | – | 0.2 h | 12.4 h | 5 h | 3.6 h | – | –
CC[C@H](C)[C@H](NC(=O)[C@H](C)NC(=O)[C@H](CCC(=O)O)NC(=O)[C@H](CC(C)C)NC)C(=O)N1CCC[C@H]1C(=O)N[C@@H](CCSC)C(=O)N[C@@H](CO)C(=O)N[C@H](C(=O)N1CCC[C@H]1C(=O)N1CCC[C@H]1C(=O)N[C@@H](CCC(=O)O)C(=O)N[C@@H](Cc1ccccc1)C(=O)N[C@@H](CC(C)C)C(=O)N[C@@H](Cc1ccccc1)C(=O)NCC(=O)N[C@@H](CCCCN)C(=O)N1CCC[C@H]1C(=O)N[C@@H](Cc1ccccc1)C(=O)N[C@H](C(=O)N[C@@H](Cc1ccccc1)C(=O)O)C(C)C)[C@@H](C)CC [VIR-512] (H-[NMeL]EAIPMSIPPEFLFGKPFVF-OH) | 138 nM | 615 nM | – | – | – | – | > 6 h | 48.1 h | 315 h | 33.6 h | – | –
CC[C@H](C)[C@H](NC(=O)[C@H](C)NC(=O)[C@H](CCC(=O)O)NC(=O)[C@@H](N)CC(C)C)C(=O)N1CCC[C@H]1C(=O)N[C@@H](CCSC)C(=O)N[C@@H](CO)C(=O)N[C@H]1CSSC[C@@H](C(=O)N[C@@H](Cc2ccccc2)C(=O)NCC(=O)N[C@@H](CCCCN)C(=O)N2CCC[C@H]2C(=O)N[C@@H](Cc2ccccc2)C(=O)N[C@H](C(=O)N[C@@H](Cc2ccccc2)C(=O)O)C(C)C)NC(=O)[C@H](Cc2ccccc2)NC(=O)[C@H](CCC(=O)O)NC(=O)[C@@H]2CCCN2C(=O)[C@@H]2CCCN2C1=O [VIR-568] (H-LEAIPMSCPPEFCFGKPFVF-OH; disulfide 8-13) | 367 nM | 552 nM | – | – | – | – | 0.1 h | 4 h | 3.9 h | 2.2 h | – | –
CC[C@H](C)[C@H](NC(=O)[C@H](C)NC(=O)[C@H](CCC(=O)O)NC(=O)[C@@H](N)CC(C)C)C(=O)N1CCC[C@H]1C(=O)N[C@@H](CCSC)C(=O)N[C@@H](CO)C(=O)N[C@H](C(=O)N1CCC[C@H]1C(=O)N1CCC[C@H]1C(=O)N[C@@H](CCC(=O)O)C(=O)N[C@@H](Cc1ccccc1)C(=O)N[C@@H](CC(C)C)C(=O)N[C@@H](Cc1ccccc1)C(=O)NCC(=O)N[C@@H](CCCCN)C(=O)N1CCC[C@H]1C(=O)N[C@@H](Cc1ccccc1)C(=O)N[C@H](C(=O)N[C@@H](Cc1ccccc1)C(=O)NCCOCCOCC(=O)NCCOCCOCC(N)=O)C(C)C)[C@@H](C)CC [VIR-580] (H-LEAIPMSIPPEFLFGKPFVF[AEEA][AEEA]-NH2) | 150 nM | 497 nM | – | – | – | – | 1.4 h | 42 h | 38.9 h | 10.2 h | – | –
H-LEAIPMSIPPEFLFGKPFVF-OH [VIR-175] | 225 nM | 300 nM | – | – | – | Dose dependent inhibition | 0.2 h | 17.3 h | 5.3 h | 3 h | – | –
H-LEAIPMSIPPEVKFNKPFVF-OH [VIRIP, reference compound] | 15000 nM | 22000 nM and 22200 nM | – | – | – | Dose dependent inhibition | 1.7 h | 35.9 h | 53.7 h | 5.1 h | – | –
VIR-576 (peptide) | – | – | – | – | – | – | – | – | – | – | 296 nM | 107 nM
VIRIP (peptide) | – | – | – | – | – | – | – | – | – | – | 22200 nM | 15000 nM
B1 | – | – | – | – | – | – | – | – | – | – | 615 nM | 138 nM
